Measured values taken from BindingDB's records for doi:10.1016/j.bmcl.2009.08.022 (Roche Palo Alto, 2009).
pIC50: −log10 of the molar value.

Target: Genome polyprotein (Hepatitis C virus genotype 1b (isolate Con1), UniProt Q9WMX2)
Experiment: Inhibition of […] con1 NS5B polymerase assessed as [3H]UTP incorporation into acid insoluble RNA product

Chain of Genome polyprotein (Q9WMX2 2420-3010 limits assumed): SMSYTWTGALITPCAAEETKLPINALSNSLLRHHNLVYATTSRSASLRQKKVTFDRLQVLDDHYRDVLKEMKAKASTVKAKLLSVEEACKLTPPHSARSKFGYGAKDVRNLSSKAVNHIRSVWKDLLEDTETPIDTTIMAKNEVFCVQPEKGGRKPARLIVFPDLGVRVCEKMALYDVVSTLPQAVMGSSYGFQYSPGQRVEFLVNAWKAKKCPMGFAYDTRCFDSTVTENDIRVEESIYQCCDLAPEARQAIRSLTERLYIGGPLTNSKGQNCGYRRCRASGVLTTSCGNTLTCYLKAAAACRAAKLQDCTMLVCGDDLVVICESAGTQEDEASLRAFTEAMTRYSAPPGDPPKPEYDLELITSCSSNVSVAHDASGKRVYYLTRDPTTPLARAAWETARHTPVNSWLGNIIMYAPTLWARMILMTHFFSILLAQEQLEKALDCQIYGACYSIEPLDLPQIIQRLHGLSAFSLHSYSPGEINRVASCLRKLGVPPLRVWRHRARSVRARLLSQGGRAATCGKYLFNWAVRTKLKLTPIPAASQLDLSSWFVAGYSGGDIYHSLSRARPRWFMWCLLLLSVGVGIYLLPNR

| SMILES | pIC50 |
| --- | --- |
| CC(C)(C)[C@H]1C(=O)C(=C2NS(=O)(=O)c3c(CCS(C)(=O)=O)cccc32)C(=O)N1Cc1ccc(F)cc1 [(S)-5-tert-Butyl-1-(4-fluoro-benzyl)-4-hydroxy-3-[7-(2-methanesulfonyl-ethyl)-1,1-dioxo-1H-1lambda*6*-benzo[d]isothiazol-3-yl]-1,5-dihydro-pyrrol-2-one] | 8.40 |
| Cc1cc(CN2C(=O)C(C3NS(=O)(=O)c4c(C=NS(N)(=O)=O)cccc43)C(=O)[C@@H]2C(C)(C)C)ccc1F (stereo partly drawn) [N-({3-[(5S)-5-tert-butyl-1-[(4-fluoro-3-methylphenyl)methyl]-4-hydroxy-2-oxo-2,5-dihydro-1H-pyrrol-3-yl]-1,1-dioxo-{6},2-benzothiazol-7-yl}methyl)aminosulfonamide] | 8.52 |
| CC(C)(C)[C@H]1C(=O)C(C2NS(=O)(=O)c3c(C=NS(N)(=O)=O)cccc32)C(=O)N1Cc1ccc(F)cc1 (stereo partly drawn) [N-({3-[(5S)-5-tert-butyl-1-[(4-fluorophenyl)methyl]-4-hydroxy-2-oxo-2,5-dihydro-1H-pyrrol-3-yl]-1,1-dioxo-{6},2-benzothiazol-7-yl}methyl)aminosulfonamide] | 8.52 |
| Cc1cc(CN2C(=O)C(=C3NS(=O)(=O)c4c(CN(C)S(C)(=O)=O)cccc43)C(=O)[C@@H]2C(C)(C)C)ccc1F [N-{3-[(S)-5-tert-Butyl-1-(4-fluoro-3-methyl-benzyl)-4-hydroxy-2-oxo-2,5-dihydro-1H-pyrrol-3-yl]-1,1-dioxo-1H-1lambda*6*-benzo[d]isothiazol-7-ylmethyl}-N-methyl-methanesulfonamide] | 8.30 |
| Cc1cc(CN2C(=O)C(=C3NS(=O)(=O)c4c(CNS(C)(=O)=O)cccc43)C(=O)[C@@H]2C(C)(C)C)ccc1F [N-{3-[(S)-5-tert-Butyl-1-(4-fluoro-3-methyl-benzyl)-4-hydroxy-2-oxo-2,5-dihydro-1H-pyrrol-3-yl]-1,1-dioxo-1H-1lambda*6*-benzo[d]isothiazol-7-ylmethyl}-methanesulfonamide] | 8.40 |
| CC(C)(C)[C@H]1C(=O)C(=C2NS(=O)(=O)c3c(NS(C)(=O)=O)cccc32)C(=O)N1Cc1ccc(F)cc1 [N-{3-[(S)-5-tert-Butyl-1-(4-fluoro-benzyl)-4-hydroxy-2-oxo-2,5-dihydro-1H-pyrrol-3-yl]-1,1-dioxo-1H-1lambda*6*-benzo[d]isothiazol-7-yl}-methanesulfonamide] | 8.30 |
